Columns and labels:
[1] = test system: Salmonella typhimurium TA100 and TA98; test: Mutagenesis tests (reverse mutation test); format: cell-based; conditions: TA100 and TA98, direct method (−s9mix) and metabolically activated method (+s9mix)
Description: In order to examine mutagenecity of the compound 1, the reverse mutation test was conducted with use of Salmonella typhimurium TA100 and TA98.

[2] = test system: fructose-induced hyperlipidemic rats; test: Hypotriglyceridemic activity in fructose-induced hyperlipidemic rats; format: in vivo, Sprague Dawley rats; conditions: fructose-loaded rats, 30 mg/kg p.o. once daily for 7 days; for inhibition in vivo at 30 mg/kg: Rattus norvegicus, po, 168 h, read-out: Reduction in Serum Triglyceride (%)
Description: The compounds were tested for a hypotriglyceridemic activity in fructose-induced hyperlipidemic rats in accordance with the method described in Nippon Yakurigaku Zasshi, 92 (3), 175-180 (1988). Sprague Dawley rats were grouped by the ranking method of body weight. Then, instead of drinking water, rats were given 75% fructose aqueous ad libitum for one week, thereby, resulting in the state of hypertriglyceridemia. The compounds of the present invention, suspended in 3% Arabic gum aqueous solution, and a dose of 30 mg/kg was orally administrated once daily for 7 days during the fructose-loading period. The control group of rats were given 3% Arabic gum aqueous solution only. Two hours later of the final administration, the rats were bled from the abdominal aorta to measure serum triglycerides and total cholesterol. The reduction rate (%) of each measurement compared to the control groups was calculated according to the equation indicated in EXAMPLE 4.

db/db mice = test: Antihyperlipidemic activities in genetically diabetic mice; format: in vivo; conditions: 150 mg/kg p.o. once daily for 14 days, serum
Description: (§1) Genetically diabetic db/db mice (C57BL/ksJ Jcl-dbm db/db mice) older than 8 weeks were grouped depend on their blood sugar levels of the prior measurements in order to divide groups with almost equal mean value of the sugar level. The respective groups of db/db mice were designates as the following groups: the group given the compound of the present invention, the group of troglitazone, and the group given no administrating group. For the compounds of the present invention, two doses: 75 mg/kg and 150 mg/kg, and for troglitazone, a dose of 150 mg/kg were individually given to the mice as a forced oral administration once daily for 14 days successively. These agents were suspended in 3.0% Arabic gum solution for administration. To the control group, only the same volume of 3.0% Arabic gum solution was administered. On the next day of the final administration, each mouse was […] for sampling. The blood samples were subject to serum separation. The glucose level in the serum of each group was measured. Then, a reduction rate in a glucose level (%) compared to the control group was calculated with mean value of each group according to the equation below. […] [formula]
In the same way as described in EXAMPLE 4, db/db mice were grouped in the manner by which the respective groups had almost equivalent mean blood sugar levels. The compounds 1, 3, 13, 21 and 22 of the present invention, suspended in 3.0% Arabic gum solution, were orally administrated, with a dose of 150 mg/kg, once daily for successive 14 days. The control group of mice were given the vehicle solution only. On the next day of the final administration, each mouse was bled for sampling. The blood was subjected for serum separation, and then subjected to measurements of β-lipoproteins, free fatty acids, and triglycerides. The reduction rate (%) of each measurement compared to the control group was calculated by the equation indicated in EXAMPLE 4. […] (Table 9).

[3] = test system: Genetically diabetic db/db mice (C57BL/ksJ Jcl-dbm db/db mice); test: Blood sugar lowering actions in genetically diabetic mice; format: in vivo; conditions: serum glucose vs control group
Description: as §1

mice = test: Acute toxicity tests with single dosing in mice; format: in vivo; conditions: 2000 mg/kg single oral dose, observed for 2 weeks
Description: The compounds (the compound 1 and 10) of the present invention were singly orally administered to each mouse at a dose of 2000 mg/kg.

[4] = test system: 3T3-L1 preadipocyte cells; test: Differentiation-inducing actions on adipose cells (oil red-O staining, absorbance at 490 nm); format: cell-based; conditions: 3T3-L1, oil red-O extract absorbance at 490 nm, ratio to control group (1.0)
Description: The cloned cell line 3T3-L1 of the preadipocyte cells at the 9-20th generation were used. The cell suspension at a concentration of 2×10^4 cells/ml was added 500 μl/well in a 24 well microplate. Then, the microplates were cultured at 37° C. in the atmosphere of 5% CO2 for 4 days with D-MEM containing 5% inactivated fetal calf serum (hereinafter abbreviated as “FCS D-MEM”). Next, the following procedures were conducted.
(1) To test compound of this invention, 500 μl/well of the following solutions was added to each well:
1) test compound-containing medium (T-MEM) in which the test compound in a stock solution (30 mM in DMSO) was diluted with FCS D-MEM containing 0.1 μM dexamethazone and 100 ng/ml insulin (hereinafter abbreviated as DEX-Ins-FCS D-MEM);
2) FCS-D-MEM; 3) DEX-Ins-FCS D-MEM; 4) 0.1% DMSO-containing DEX-Ins-FCS D-MEM for me control wells.
(2) After above additions were done, the culture plates were incubated at 37° C. in 5% CO2 for 3 days. Then, the same operations as in the procedure (1) were repeated for exchange of the culture medium. The culture plates were incubated at 37° C. in 5% CO2 for further 3 days.
(3) After incubation, the culture medium was removed from the culture plates. Then, the FCS D-MEM was added to the FCS D-MEM-wells, and next the medium prepared for containing 100 ng/ml of insulin with the FCS D-MEM (hereinafter abbreviated as “Ins-FCS D-MEM”) was added at 500 μl/well to the T-MEM wells and DEX-Ins-FCS D-MEM wells. All culture plates were incubated for 4 days.
(4) After incubation, the culture medium was removed. For cell fixation, 500 μl/well of 10% formalin in neutral buffer was added, and left at the room temperature for approximately 20 minutes or longer. Then the formalin solution was removed, and 60% 2-propanol solution was added at 500 μl/well, then quickly removed, and the oil red-O staining solution was added at 250 μl/well. The culture plates were sealed with plate seals, and left at room temperature for 30 minutes or longer. After incubation, the staining solution was removed, and the 60% 2-propanol solution was added at 500 μl/well, and quickly removed. The cells were rinsed with water a few times, and then water drops were flipped away. A cell-lysis buffer was added at 500 μl/well, and the culture plates were sealed with plate seals, and left at 37° C. for 1 hour to extract the pigments. Next, 300 μl/well of the extract solution was transferred at a 96 well micro-plates, and then the absorbance of each extract was measured at wavelength of 490 nm.
The absorbance ratios of the respective test compounds-groups to the control group, the mean absorbance of which was designated as 1.0, are shown in Table 8. Based on the judgement that the absorbance higher than that of the control group indicates a greater differentiation-inducing activity of the test compound, the compounds of the present invention were determined to have the activity to induce differentiation of preadipocytes to adipocytes, resulting in elevating insulin sensitivity of organs. Thereby, this activity would confer the efficacy in the therapy of diabetes.

[5] = test system: high cholesterol-fed hamsters; test: Lipid lowering effects in high cholesterol-fed hamsters; format: in vivo, Syrian hamsters; conditions: serum, negative = elevation
From the text: According to the method described in Jpn Pharmacol Ther, 23 (suppl 4), s1047-1053 (1995), male Syrian hamstars were fed for 3 weeks with 1% cholesterol 10% coconut oil (W/W) supplemented diet, and thereby, became to be hypercholesterolemia models. Prior to administration of the compounds, under ether anesthesia, the hamsters were bled from the orbital vein for measurement of serum total cholesterol. They were grouped in the manner by which the respective groups had almost equal serum total cholesterol levels. The normal group of hamsters were fed ordinary diet. Thereafter, the compound 1 and bezafibrate were orally administered once daily at doses of 15 (for only compound 1), 30, 60 and 120 mg/kg for 7 days. Even during the treatment period, cholesterol loading was continued. Four hours later of the final administration, the hamsters were bled by cardiac puncture. The total cholesterol and triglycerides in the serum obtained were measured by the enzymatic method. The results are shown in Table 11 (the negative values mean elevation rates.)
The actions of the compounds of the present invention at a dose of 15 mg/kg were measured in the same method as described in EXAMPLE 8.

[6] = 75 mg/kg oral once daily for 14 days
[7] = 150 mg/kg oral once daily for 14 days
[8] = 15 mg/kg oral once daily for 7 days
[9] = 30 mg/kg oral once daily for 7 days
[10] = 60 mg/kg oral once daily for 7 days
[11] = 120 mg/kg oral once daily for 7 days

Row | SMILES | Mutagenicity (number of reversely mutated colonies) [1] | Reduction in Serum Triglyceride (%) [2] [%] | Reduction Rate (%) Free Fatty Acids (db/db mice) [%] | Reduction Rate (%) Triglycerides (db/db mice) [%] | Reduction Rate (%) β-lipoproteins (db/db mice) [%] | Reduction in Blood Glucose (%) [3, 6] [%] | Reduction in Blood Glucose (%) [3, 7] [%] | Survival after single oral dose (mice) | Absorbance Ratio [4] | Reduction Rate (%) Total cholesterol [5, 8] [%] | Reduction Rate (%) Triglyceride [5, 8] [%] | Reduction Rate (%) Total cholesterol [5, 9] [%] | Reduction Rate (%) Triglyceride [5, 9] [%] | Reduction Rate (%) Total cholesterol [5, 10] [%] | Reduction Rate (%) Triglyceride [5, 10] [%] | Reduction Rate (%) Total cholesterol [5, 11] [%] | Reduction Rate (%) Triglyceride [5, 11] [%] | inhibition in vivo at 30 mg/kg [2] [%]
1 | N#CN=C1NC(=O)/C(=C\c2ccc(C=Cc3ccccc3)cc2)S1 [Compound 1, 2-(N-Cyanoimino)-5-[(E)-4-stylylbenzylidene]thiazolidin-4-one] | non-mutagenic | 47 | 39 | 69 | 51 | 31 | 37 | all 3 mice given the respective compounds survived | 1.46 | 26 | 60 | 25 | 62 | 29 | 69 | 41 | 80 | 
2 | N#CN=C1NC(=O)C(=Cc2ccc(COCc3ccccc3)cc2)S1 [Compound 3, 2-(N-Cyanoimino)-5-[4-(benzyloxymethyl)benzylidene]thiazolidin-4-one] |  |  | 58 | 85 | 65 | 24 | 49 |  | 1.48 |  |  |  |  |  |  |  |  | 64
3 | N#CN=C1NC(=O)C(=Cc2ccc(OCCc3ccccc3)cc2)S1 [Compound 10, 2-(N-Cyanoimino)-5-(4-phenethyloxybenzylidene)thiazolidin-4-one] |  |  |  |  |  |  |  | all 3 mice given the respective compounds survived | 2.12 |  |  |  |  |  |  |  |  | 39

Source: patent US6667328B2, “Therapeutic agents for diabetes” (Fujimoto Brothers Co., Ltd., priority 2000, dated 2003)
